Molecules are shown by their SMILES. Values after ≈ are worked out from the molar mass of the structure shown.

The test system of data set [1] is E. coli acrD knockout strain. In words: MIC, efflux pump knockout acrD. Format: cell-based. The settings on record: Escherichia coli, read-out: MIC acrD. As for the experimental part:
(§1) The inoculum used for all the experiments is derived from a single seed lot that is maintained as glycerol stocks at −80 °C and are sub cultured on LB plate for isolated colonies. Single colony of each strain is grown in M9 medium. All test compound stocks and dilutions are prepared in DMSO. Serial two-fold dilutions of compounds are prepared separately, with the concentrations ranging from 2 mg/mL to 0.015 mg/mL. To 150 µl (3–7 × 10^5 CFU/ml) of bacterial culture in 96 well microtitre plates, 3 μL compound from each of the dilutions is added to respective wells to obtain final concentrations ranging from 40 µg/mL to 0.3 µg/mL of the test compounds. Media control, culture control and appropriate reference drug controls are included. […] Growth is monitored by checking absorbance at 600 nm (A600). […] The samples from MIC and above concentrations are plated for MBC (Minimum Bactericidal Concentration). The samples are diluted 1:10 and plated on LB agar plates. […] The killing kinetics is determined by enumerating survivors at various time points following compound exposure. E. coli cells (~10^7 CFU/ml; A600 of 0.1) are treated with various concentrations (40 µg/mL to 0.3 µg/mL) of compounds in a 96-well microtitre plate. […] Data is expressed as the log10 CFU for each drug treatment.

The subject of data set [2] is E. coli acrF knockout strain. The data set is described as follows: MIC, efflux pump knockout acrF. Type of data set: cell-based. As to conditions: Escherichia coli, read-out: MIC acrF. How it is done: as §1
Data set [3] has as its system E. coli acrZ knockout strain. In words: MIC, efflux pump knockout acrZ. Type of data set: cell-based. The settings on record: Escherichia coli, read-out: MIC acrZ. As for the experimental part: as §1
Data set [4] concerns E. coli emrY knockout strain. In words: MIC, efflux pump knockout emrY. The settings on record: Escherichia coli, read-out: MIC emrY. Type of data set: cell-based. How it is done: as §1
Data set [5] concerns E. coli mdtG knockout strain. In words: MIC, efflux pump knockout mdtG. Type of data set: cell-based. As to conditions: Escherichia coli, read-out: MIC mdtG. As for the experimental part: as §1
The subject of data set [6] is E. coli hsrA knockout strain. In words: MIC, efflux pump knockout hsrA. The settings on record: Escherichia coli, read-out: MIC hsrA. Type of data set: cell-based. How it is done:
as §1

In data set [7] the test system is E. coli mdtL knockout strain. The data set is described as follows: MIC, efflux pump knockout mdtL. Type of data set: cell-based. The settings on record: Escherichia coli, read-out: MIC mdtL. How it is done: as §1
Data set [8] relates to E. coli mdtK knockout strain. In words: MIC, efflux pump knockout mdtK. Format: cell-based. The settings on record: Escherichia coli, read-out: MIC mdtK. As for the experimental part:
as §1

Data set [9] deals with E. coli macB knockout strain. In words: MIC, efflux pump knockout macB. The settings on record: Escherichia coli, read-out: MIC macB. Type of data set: cell-based. As for the experimental part: as §1
The test system of data set [10] is E. coli mdtB knockout strain. The data set is described as follows: MIC, efflux pump knockout mdtB. Format: cell-based. As to conditions: Escherichia coli, read-out: MIC mdtB. How it is done: as §1
The next data set has as its system WT E. coli. In words: MIC on WT E. coli in the presence of PAβN. Type of data set: cell-based. The settings on record: Escherichia coli. How it is done: as §1
Data set [11] in a line: Intravenous pharmacokinetics. Format: in vivo, BALB/c mice. The settings on record: for AUC / AUC(0-inf) / AUC(0-t) / clearance / half-life / Vd: BALB/c, mouse, in vivo; for AUC: iv, 2 mg/kg, used for estimation of oral bioavailability; for AUC(0-inf) / AUC(0-t) / clearance / half-life / Vd / AUMC0-∞ / Clast / Kel(β) / extr AUC: mice, single IV dose 2 mg/kg; for Vd: read-out: Vss; for condition of mice post dose and throughout the study: single intravenous dose of 2 mg/kg or single oral dose of 10 mg/kg. As for the experimental part: The test substances were formulated in the vehicle DMSO: PEG400: Ethanol (absolute): Water at ratio of 10:40:20:30 (v/v). The required quantity of test compound was weighed, transferred into a vial and dissolved using the appropriate volumes of DMSO, PEG400, Ethanol (absolute) and sterile water in a sequential manner until a clear solution was obtained. The test substance was administered intravenously as a bolus via the tail vein at a dose volume of 5 ml/kg.
At 5 min, 15 min, 30 min, 1 h, 2 h, 4 h, 8 h, and 24 h time points, and prior to sampling, mice were anaesthetized with isoflurane. From each mouse, two blood samples were drawn; the 1st was non-terminal (0.1 ml) and the 2nd terminal, by retro-orbital plexus puncture using heparanised capillary tubes. Blood was collected in 2 ml Eppendorf tubes containing 0.01 ml of 10% K2EDTA as anticoagulant, mixed gently and placed in ice before centrifugation. Blood was centrifuged at 10,000 rpm for 5 min, and plasma was harvested and stored at −80 °C until bioanalysis.
Ultrafast liquid chromatography mass spectrometric method was used for the estimation of test compounds in pre-clinical study samples. The analysis was performed using an API 4000 LC-MS/MS system. The interface used with the API 4000 LC-MS/MS was a Turbo Ion spray. The positive ions were measured in MRM mode. The analyte was extracted using a solid-phase extraction procedure. The data was acquired by and integrated using the Applied Biosystems “Analyst” version 1.5.2 software. Linear regression, with 1/x^2 weighting was used for calibration.
Non-compartmental (NCA) PK analysis was performed using MS Excel. The linear trapezoidal rule was used to estimate the AUC. The NCA analysis was performed using the following equations (3) on mean concentration time data: AUC=Σ[(Ci1+Ci2)/2]∗[ti2−ti1] AUMC=Σ[((Ci1∗ti1)+(Ci2∗ti2))/2)∗(ti2−ti1)] AUCt−∞=Clast/Kel AUC0−∞=AUC0−t+AUCt−∞ AUCextrapolated(%)=[AUCt−∞/AUC0−∞]∗100 where, Ci1 and Ci2 are the concentrations at times ti1 and ti2, respectively. Kel=ln(Cx/Cy)/(ty−tx) where, Kel is the first order elimination rate constant, ln is the natural logarithm, Cx and Cy are the first and last concentrations, respectively on the linear portion of the terminal phase of the concentration-time profile, and ty and tx are the corresponding time points. T1/2=0.693/Kel Cl=Doseiv/AUC0−∞ Vss=(AUMC0−∞/AUC0−∞)∗(Doseiv/AUC0−∞) Cmax and tmax were visually estimated from the mean oral conc-time profile F(%)=(AUCpo/AUCiv)∗(Doseiv/Dosepo)∗100

Data set [12] deals with clinical isolate of E. coli (Strain No. 371). In words: Neutropenic thigh infection, E. coli clinical isolate. Type of data set: in vivo, BALB/c mice. As to conditions: for Log10CFU Mean Diff. vs. Untreated Controls: Study TI-2014-023, Clinical Isolate N. 371, 100mg/kg per oral; for efficacy in thigh infection model (in words): clinical isolate of E. coli.
The subject of data set [13] is Shigella sonnei clinical strain. In words: MIC, Shigella sonnei. Type of data set: cell-based. As for the experimental part: as §1
For the next data set, the system named is E. coli BW24113. In words: In vitro time kill analysis. The settings on record: for time to 99.9% reduction: at 2–4X MIC; for time to total kill (below the limit of quantitation, LOQ): at 8X MIC. Format: cell-based. How it is done:
as §1, with “plate. At various time intervals (0 to 8 h), 30 μl volumes of treated cultures are serially diluted and plated on LB agar plates.” for “plate.”

A further data set deals with E. coli ∆acrB JW0451-2. In words: Neutropenic thigh infection, E. coli ∆acrB. Type of data set: in vivo, BALB/c mice.

Broadly, the MIC is the smallest concentration in the dilution series that meets the test's criterion for growth inhibition. In the case of `Cc1sc(NC(=O)c2ccc([N+](=O)[O-])s2)nc1-c1ccccc1` [compound 7, N-(5-Methyl-4-phenylthiazol-2-yl)-5-nitrothiophene-2-carboxamide], the MIC in data set [1], in [2], in data set [3], in [4], in data set [5] and in [6] was over 40 µg/mL each time. For the same compound, the MIC in [7] is over 40 µg/mL; in data set [8], over 40 µg/mL; in [9], over 40 µg/mL; in data set [10], over 40 µg/mL; in the data set with WT E. coli, under 0.3 µg/mL.

By AUC is commonly meant concentration integrated over time. In general, AUC(0-inf) refers to the area under the concentration-time curve extrapolated to infinity. One may read the AUC(0-t) as the area under the concentration-time curve up to a stated or last time point. Low readings indicate low exposure, high ones high exposure. As usually defined, the clearance is a measure of how efficiently the substance is removed, as volume per time. Higher therefore signals a high capacity for elimination. For orientation: half-life means the time needed for the level to fall by half in the phase considered. Low readings indicate fast loss, high ones slow loss. On to `O=C(Nc1nc(-c2ccc(F)cc2F)cs1)c1ccc([N+](=O)[O-])s1` [compound 12, N-(4-(2,4-difluorophenyl)thiazol-2-yl)-5-nitrothiophene-2-carboxamide], for which, in [11], the AUC was 570 ng·h/mL, the AUC(0-inf) amounted to 570 ng·h/mL, the AUC(0-t) was found to be 570 ng·h/mL and the clearance was 58.7 mL/min/kg. For the same compound, in [11], the half-life was 36 min, the Vd came out at 1.64 L/kg, the “AUMC0-∞” value is reported as 0.26 and the Clast is 3 ng/mL. In addition, in data set [11], the “Kel(β)” value is reported as 1.18 ^-h; the “extr AUC” value is recorded as 0.4%; the “condition of mice post dose and throughout the study” value is “visibly normal”. Besides, in [12], the “Log10CFU Mean Diff. vs. Untreated Controls” value worked out at 1.907 Log10CFU and the “efficacy in thigh infection model (in words)” value (shortened to “efficacy”) is given as “significantly bactericidal”. In addition, in data set [13], the MIC Shigella sonnei amounted to 5 µg/mL (≈ 13.6 µM).

On to `O=C(Nc1nc(-c2ccc(F)cc2)cs1)c1ccc([N+](=O)[O-])s1` [compound 15, N-(4-(4-Fluorophenyl)thiazol-2-yl)-5-nitrothiophene-2-carboxamide], for which, in the data set with E. coli BW24113, the “time to 99.9% reduction” value lay within 6 to 8 h and the “time to total kill (below the limit of quantitation, LOQ)” value worked out at 8 h. Further, in data set [11], the AUC is 910 ng·h/mL, the AUC(0-inf) was 911 ng·h/mL, the AUC(0-t) amounted to 900 ng·h/mL and the clearance is 36.7 mL/min/kg. Moreover, in [11], the half-life was 30 min, the Vd is 0.4 L/kg, the “AUMC0-∞” value stood at 0.17 and the Clast is 12 ng/mL. For the same compound, in [11], the “Kel(β)” value is 1.51 ^-h; the “extr AUC” value was 0.9%; the “condition of mice post dose and throughout the study” value was “visibly normal”. In the data set on E. coli ∆acrB JW0451-2 (E. coli ∆acrB JW0451-2), the “efficacy” value is “significantly bactericidal”. Moreover, in the data set on E. coli ∆acrB JW0451-2 (Study TI-2014-007, ∆acrB JW0451-2, 10mg/kg per oral), the “Log10CFU Mean Diff. vs. Untreated Controls” value was found to be 0.2933 Log10CFU. In addition, in the data set with E. coli ∆acrB JW0451-2 (Study TI-2014-007, ∆acrB JW0451-2, 30mg/kg per oral), the “Log10CFU Mean Diff. vs. Untreated Controls” value came to 1.943 Log10CFU. In the data set on E. coli ∆acrB JW0451-2 (Study TI-2014-007, ∆acrB JW0451-2, 100mg/kg per oral, 6 hours post treatment), the “Log10CFU Mean Diff. vs. Untreated Controls” value was determined as 2.436 Log10CFU. For the same compound, the “Log10CFU Mean Diff. vs. Untreated Controls” value with E. coli ∆acrB JW0451-2 (Study TI-2014-008, ∆acrB JW0451-2, 30mg/kg per oral) came out at 1.497 Log10CFU. For the same compound, the “Log10CFU Mean Diff. vs. Untreated Controls” value in the data set with E. coli ∆acrB JW0451-2 (Study TI-2014-008, ∆acrB JW0451-2, 100mg/kg per oral) turned out to be 2.253 Log10CFU. For the same compound, in data set [12], the “Log10CFU Mean Diff. vs. Untreated Controls” value is reported as 1.553 Log10CFU and the “efficacy” value is “significantly bactericidal”.

On to `COc1cc(-c2csc(NC(=O)c3ccc([N+](=O)[O-])s3)n2)ccc1Cl` [compound 20, N-(4-(4-chloro-3-methoxyphenyl)thiazol-2-yl)-5-nitrothiophene-2-carboxamide], for which, in the data set on E. coli BW24113, the “time to 99.9% reduction” value was 6 to 8 h and the “time to total kill (below the limit of quantitation, LOQ)” value came out at 8 h.

The values are drawn from article PMC5940854, “Nitrothiophene carboxamides, a novel narrow spectrum antibacterial series: Mechanism of action and Efficacy” (Scientific Reports, 2018).
